The numbers were not newly measured in US20220273570A1, “Self-Microemulsifying Multi-Deliverable Systems” (Quicksilver Scientific, Inc., priority 2019, published 2022), which cites them from elsewhere.

Read-outs that look alike come from different tables or passages of the source.

The conditions of series [1]: rats, oral.
For series [2] the following is noted: oral; extensively metabolized into glucuronide conjugate.
The conditions of series [3]: up to.
Series [4] deals with human hepatoma cell line (HepG2).

As for `COc1cc(/C=C/C(=O)CC(=O)/C=C/c2ccc(O)c(OC)c2)ccc1O` [curcumin], the “bioavailability of orally administered solid curcumin powder” value in series [1] is given as 1%.
Turning to `Oc1ccc(/C=C/c2cc(O)cc(O)c2)cc1` [resveratrol, 3,5,4′-trihydroxy-trans-stilbene], the bioavailability result in series [2] is “about 0.5%”.
As for `O=c1c(O)c(-c2ccc(O)c(O)c2)oc2cc(O)cc(O)c12` [quercetin], the elimination half-life (after oral ingestion of quercetin containing foods or supplements) is 1 to 2 h. For the setting “humans, low and highly variable”, the bioavailability is 0-50%.
`C[C@]12CC[C@H](O)CC1=CC[C@@H]1[C@@H]2CC[C@]2(C)C(=O)CC[C@@H]12` [DHEA]: the “solubility in MCT oil” value in series [3] (MCT oil) was “approximately 10 mg/mL”. The solubility in ethanol result in series [3] (ethanol) is “approximately 150 mg/mL”.
Regarding `COc1cc(/C=C/C(=O)CC(=O)/C=C/c2ccc(O[C@@H]3O[C@H](C(=O)O)[C@@H](O)[C@H](O)[C@H]3O)c(OC)c2)ccc1O` [curcumin-glucuronide], the “effects on gene expression compared with free curcumin” value in series [4] was “weaker”.
